pIC50, pKd: −log10 of the molar value.
Experiments:
[1] = target: T1, Mitogen-activated protein kinase 10 (Homo sapiens, UniProt P53779); assay: Binding affinity to N-terminal His6X-tagged human recombinant JNK3 catalytic domain expressed in Escherichia coli BL21 (DE3) by surface plasmon resonance analysis
[2] = target: T1, Mitogen-activated protein kinase 10; assay: Inhibition of JNK3 in human PBMCs assessed as decrease in LPS-induced TNFalpha mRNA level after 4 hrs by real-time reverse transcription-PCR analysis
[3] = target: T1, Mitogen-activated protein kinase 10; assay: Competitive inhibition of JNK3 (unknown origin) in presence of ATP
[4] = target: Mitogen-activated protein kinase 9 (Homo sapiens, UniProt P45984); assay: Competitive inhibition of JNK2 (unknown origin) in presence of ATP
Mitogen-activated protein kinase 9, sequence (P45984 whole entry): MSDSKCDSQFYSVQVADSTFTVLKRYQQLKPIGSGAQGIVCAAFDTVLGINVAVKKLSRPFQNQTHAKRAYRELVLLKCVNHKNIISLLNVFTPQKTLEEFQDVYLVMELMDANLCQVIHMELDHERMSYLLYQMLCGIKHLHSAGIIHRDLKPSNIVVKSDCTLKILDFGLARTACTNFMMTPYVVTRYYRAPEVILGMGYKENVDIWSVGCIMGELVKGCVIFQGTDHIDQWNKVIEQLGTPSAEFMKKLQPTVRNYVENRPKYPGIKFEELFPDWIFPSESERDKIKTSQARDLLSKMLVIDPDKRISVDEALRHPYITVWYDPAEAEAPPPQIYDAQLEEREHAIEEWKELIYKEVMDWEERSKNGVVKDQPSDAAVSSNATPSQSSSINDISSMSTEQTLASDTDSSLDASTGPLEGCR

T1 sequence (P53779 whole entry, the tested form may be a part): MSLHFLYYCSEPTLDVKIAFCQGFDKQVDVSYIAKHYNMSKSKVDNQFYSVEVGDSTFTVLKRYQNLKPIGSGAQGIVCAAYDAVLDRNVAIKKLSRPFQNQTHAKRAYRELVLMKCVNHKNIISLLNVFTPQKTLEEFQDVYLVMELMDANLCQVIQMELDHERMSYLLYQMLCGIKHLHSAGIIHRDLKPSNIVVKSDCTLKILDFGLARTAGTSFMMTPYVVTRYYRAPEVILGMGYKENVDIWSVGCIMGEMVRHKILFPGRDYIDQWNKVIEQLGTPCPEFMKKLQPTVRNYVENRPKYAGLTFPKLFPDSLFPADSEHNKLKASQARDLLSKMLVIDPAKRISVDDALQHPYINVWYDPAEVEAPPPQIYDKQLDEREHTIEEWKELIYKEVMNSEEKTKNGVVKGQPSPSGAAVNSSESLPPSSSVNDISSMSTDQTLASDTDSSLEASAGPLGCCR

`COc1ccc2c(c1)nc(-c1ccc(C)c(Cl)c1)n2-c1ccnc(NC2CCCCC2)c1` gave a pKd [1] of 4.74.
`Oc1c2ccccc2c2c3c(cccc13)N=N2` [SP-600125] was tested, and the pIC50 [2] was 5.00 and the inhibition [2] was “Dose-dependent effect”.
For `Oc1cccc(-c2nc3ccccc3n2-c2ccnc(N[C@@H]3CCCNC3)c2)c1`, the pIC50 [3] was 5.73 and the pIC50 [4] was 5.66.
